The values below come from patent US4622337A, “2,2-dimethyl-3-(2-halovinyl)cyclopropane carboxlic acid ester pesticides” (priority 1972, dated 1986).

For series [1], the system named is houseflies (Musca domestica). Briefly: Relative toxicity to houseflies, topical drop on thorax. The class given is in vivo. The conditions noted are these: for Relative Toxicity, Houseflies: 5-benzyl-3-furylmethyl (1R)-trans-chrysanthemate = 1000, inverse ratio of LD50, topical, female flies. As to the method:
(§1) The toxicity of these new esters was tested by the procedure described in detail in our above mentioned application and the following results were obtained:
(§2) The insecticidal acitivity of the esters of the invention was assessed against houseflies and mustard beetles using the following techniques:
Female flies were treated on the thorax with a one microliter drop of insecticide dissolved in acetone. Two replicates of 15 flies were used at each dose rate and 6 dose rates were used per compound under test. After treatment, the flies were maintained at a temperature of 20° C.±1° and kill was assessed 24 and 48 hours after treatment. LD50 values were calculated in micrograms of insecticide per fly and relative toxicities were calculated from the inverse ratios of the LD50 values. (see Sawicki et al, Bulletin of the World Health Organization, 35,893, (1966) and Sawicki et al, Entomologia and Exp. Appl. 10, 253, (1967)).
(§3) Relative toxicities were calculated by comparison with 5-benzyl-3-furylmethyl(1R)-trans-chrysanthemate which is one of the most toxic chrysanthemate esters known to houseflies and mustard beetles, its toxicity being about 24 times that of allethrin to houseflies and 65 times that of allethrin to mustard beetles.

Series [2] has as its system female flies (houseflies). As to the kind of experiment: Synergisability with Sesamex, 5 micrograms per fly 3 hours before. The class given is in vivo, Musca domestica. The conditions noted are these: for LD50 Active compound (flies pretreated with synergist): 5 micrograms per fly Sesamex 3 hours before; for Approx. synergist factor: Sesamex, 5 micrograms per fly; for LD 50 active compound only: without synergist. As to the method:
The following results were obtained
By repeating the above synergisability test but pretreating flies instead with 5 micrograms per fly of the synergist Sesamex 3 hours before applying the pyrethroid, the following results were obtained: […]

The subject of series [3] is mustard beetles (Phaedon cochleariae Fab). As to the kind of experiment: Relative toxicity to mustard beetles, topical micro drop. Format: in vivo. The conditions noted are these: for Relative Toxicity, Mustard Beetles: 5-benzyl-3-furylmethyl (1R)-trans-chrysanthemate = 1000, inverse ratio of LD50, topical, 48 hours. How it is done: as §1, §2
Acetone solutions of the test compound were applied ventrally to adult mustard beetles using a micro drop applicator. The treated insects were maintained for 48 hours after which time kill is assessed. Two replicates of 40 to 50 mustard beetles were used at each dose level and 3 to 4 dose levels were used for each compound. Again, LD50 values were calculated and relative toxicities were calculated for the inverse ratios of LD50 (see Elliott et al, J. Sci. Food Agric. 20, 561, (1969)).
as §3

Series [4] is described as follows: Mammalian toxicity in rats. The conditions noted are these: rat, in vivo.
Series [5] is described as follows: Mammalian toxicity in mice. The conditions noted are these: mouse, in vivo; oral acute.
In series [6] the test system is female flies (houseflies). Briefly: Synergisability with sesamex, 2 μg per fly pretreatment. The class given is in vivo, Musca domestica. The conditions noted are these: for LD 50 active compound + synergist: pretreated with 2 μg. per fly sesamex; for Approx. Synergistic factor: sesamex, 2 μg. per fly; for LD 50 active compound only: untreated flies. As to the method:
Female flies were treated on the thorax with a one microliter drop of insecticide dissolved in acetone. Two replicates of 15 flies were used at each dose rate and 6 dose rates were used per compound under test. After treatment, the flies were maintained at a temperature of 20° C.±1° and kill was assessed 24 and 48 hours after treatment. LD50 values were calculated in micrograms of insecticide per fly and relative toxicities were calculated from the inverse ratios of the LD50 values.

Series [7] relates to American cockroach, Periplaneta americana L. Briefly: Toxicity relative to bioresmethrin against American cockroach. The class given is in vivo. The conditions noted are these: for Relative Toxicity (American cockroach): Bioresmethrin = 100.
The next series deals with female Musca domestica. Briefly: Topical application of pyrethroids alone and with piperonyl butoxide or Tropital. Format: in vivo. The conditions noted are these: for LD 50 active compound only: alone; for LD50 Active compound + piperonyl butoxide (1:5): with piperonyl butoxide (1:5). From the text:
Topical application of pyrethroids alone and in combination with synergist gave the following LD50 results in micrograms with female Musca domestica: […]

For series [8], the system named is houseflies (M. domestica). As to the kind of experiment: Insecticidal activity by spraying in a Kearns and March chamber. The class given is in vivo, Musca domestica. The conditions noted are these: for LD50: compound alone, odourless kerosene spray. As to the method: The insecticidal activity of DP 870 against houseflies was tested by spraying M. domestica in a Kearns and March chamber with a solution of a compound in odourless kerosene, and LD50 values calculated. The activity of DP 870 synergised with piperonylbutoxide was also measured and the results compared with the LD50 value for compound P21H of Example 18.

Series [9] relates to Ephestia kuhniella and Venturia canescens. As to the kind of experiment: Selective toxicity to Ephestia compared to Venturia (LD50 ratio). The class given is in vivo. The conditions noted are these: for Selectivity (ratio of toxicity to Ephestia compared to Venturia): ratio from relative toxicity (LD50). From the text:
Experiments to compare the relative toxicity (LD50) of compound P39E with certain related compounds have been carried out towards both Ephestia kuhniella and Venturia canescens so that the relative toxicity to the two species can be calculated. […]

For series [10], the system named is Boophilus microplus, Biarra strain. As to the kind of experiment: Acaricidal activity: inhibition of egg laying of injected engorged female ticks. The conditions noted are these: Rhipicephalus microplus, 336 h, 14 days after injection, read-out: % Inhibition (egg laying ability). The class given is in vivo. From the text: Acaricidal activity has been measured by injecting solutions of test compound P39E into engorged female ticks, Boophilus microplus, Biarra strain and the ability of the female to lay eggs 14 days after injection determined. The results are exposed as a percent of inhibition of egg laying ability compared to untreated control ticks.

Turning to `CC1(C)C(C=C(Cl)Cl)C1C(=O)OC(C#N)c1cccc(Oc2ccccc2)c1` (racemic) [Compound P21P, (αRS)-cyano-3-phenoxybenzyl-(1RS)-cis-trans-3-(2,2-dichlorovinyl)-2,2-dimethyl cyclopropane carboxylate], the “Relative Toxicity, Houseflies” value in series [1] is 1300. Besides, in series [2], the “LD50 Active compound (flies pretreated with synergist)” value stood at 0.00088 µg, the Approx. synergist factor is around 8.3 and the “LD 50 active compound only” value stood at 0.0073 µg. In addition, the “Relative Toxicity, Mustard Beetles” value in series [3] is given as at least 5000.
Turning to `CC1(C)[C@H](C=C(Cl)Cl)[C@H]1C(=O)OCc1cccc(Oc2ccccc2)c1` (relative stereo), the LD50 in series [4] (po) and in series [5] was above 300 mg/kg in each case.
For `C#CCc1ccc(COC(=O)[C@@H]2[C@@H](C=C(Cl)Cl)C2(C)C)o1` (relative stereo), the figures for the LD50 in series [4] (po) and in series [5] were 300 mg/kg and around 300 mg/kg, respectively.
Compound `CC1(C)[C@H](C=C(Cl)Cl)[C@H]1C(=O)OCc1coc(Cc2ccccc2)c1` (relative stereo) returned an LD50 in [5] of 100 mg/kg.
Turning to `CC1(C)[C@H](C(=O)OCc2cccc(Oc3ccccc3)c2)[C@@H]1C=C(Cl)Cl` (relative stereo) [Compound P21G], the “Relative Toxicity, Houseflies” value in series [1] amounted to 680. In addition, in series [3], the “Relative Toxicity, Mustard Beetles” value turned out to be 780. Moreover, in [6], the “LD 50 active compound + synergist” value is 0.00037 μg. per female fly, the “Approx. Synergistic factor” value was around 22 and the “LD 50 active compound only” value worked out at 0.0083 μg. per female fly.
Turning to `CC(C)=C[C@@H]1[C@@H](C(=O)OCc2coc(Cc3ccccc3)c2)C1(C)C` [Bioresmethrin, 5-benzyl-3-furylmethyl (1R)--trans-chrysanthemate, reference compound], the “toxicity, times that of allethrin, to houseflies” value in [1] (relative to allethrin) is on record as “about 24 times”. Further, in [7] (in vivo), the “LD50 (American cockroach)” value worked out at 2.5 μg/insect. Moreover, the LD50 in series [4] (iv) is 340 mg/kg; in series [4] (po), above 8000 mg/kg. Moreover, in series [3] (relative to allethrin), the “toxicity, times that of allethrin, to mustard beetles” value was around 65 times. For the same compound, in series [6], the “Approx. Synergistic factor” value was around 9.4.
As to `CC/C=C\[C@@H]1[C@@H](C(=O)OCc2coc(Cc3ccccc3)c2)C1(C)C` [Compound A], the “Relative Toxicity, Houseflies” value in series [1] came to 1700. In addition, in [4] (iv), the LD50 turned out to be 120 mg/kg. For the same compound, the LD50 in series [4] (po) fell in the range of 800 to 1000 mg/kg. In [3], the “Relative Toxicity, Mustard Beetles” value was determined as 2000. In series [6], the “LD 50 active compound + synergist” value was found to be 0.00033 μg. per female fly, the “Approx. Synergistic factor” value was around 13 and the “LD 50 active compound only” value was determined as 0.0042 μg. per female fly. Besides, in the series on female Musca domestica, the “LD 50 active compound only” value turned out to be 0.034 µg and the “LD50 Active compound + piperonyl butoxide (1:5)” value came to 0.015 µg.
On to `CC1(C)C(C=C(Cl)Cl)C1C(=O)OCc1cccc(Oc2ccccc2)c1` (centres unmarked) [Compound P21H], for which, in [1], the “Relative Toxicity, Houseflies” value stood at 660. Also, in series [8], the LD50 was determined as 0.022 μg/female. In addition, the “Relative Toxicity, Mustard Beetles” value in [3] is 740. Besides, in the series on female Musca domestica, the “LD 50 active compound only” value stood at 0.031 µg and the “LD50 Active compound + piperonyl butoxide (1:5)” value was 0.018 µg. Also, the “LD50 Active compound + Tropital (1:5)” value with female Musca domestica (with Tropital (1:5)) amounted to 0.019 µg.
Consider `CC1(C)[C@H](C(=O)OCc2cccc(Oc3ccccc3)c2)[C@@H]1C=C(Cl)Cl` [Compound P29L], for which, in [9], the “Selectivity (ratio of toxicity to Ephestia compared to Venturia)” value was determined as 2.3. For the same compound, the “Relative Toxicity (American cockroach)” value in [7] is 2,100.
Take `CC1(C)[C@H](C=C(Cl)Cl)[C@H]1C(=O)OCc1cccc(Oc2ccccc2)c1` [Compound P29M, 3-Phenoxybenzyl-(1R)--trans-2,2-dimethyl-3-(2,2-dichlorovinyl)cyclopropanecarboxylate]: the “Selectivity (ratio of toxicity to Ephestia compared to Venturia)” value in series [9] was 2.8. Besides, the “Relative Toxicity, Houseflies” value in series [1] was 740. Further, the “Relative Toxicity (American cockroach)” value in [7] is recorded as 800.
The inhibition is the change of the read-out against control, counted positive when it falls. Regarding `CC1(C)[C@H](C(=O)OC(C#N)c2cccc(C(=O)c3ccccc3)c2)[C@@H]1C=C(Br)Br` (stereo partly drawn) [Compound P39E, (αRS)-cyano-3-benzoylbenzyl(1R)cis-2,2-dimethyl-3-(2,2-dibromovinyl)-cyclopropane carboxylate], the selectivity in words result in series [9] (Ephestia over Venturia) was “very marked and quite unexpected selectivity”. In series [9], the “Selectivity (ratio of toxicity to Ephestia compared to Venturia)” value is recorded as 7.9. For the same compound, the “Relative Toxicity, Houseflies” value in series [1] was 330. For the same compound, the inhibition at 100 µg/mL in [10] (0.1 mg/ml) was found to be 0%. In addition, the inhibition at 1000 µg/mL in series [10] (1 mg/ml) worked out at 90%. Moreover, in series [10] (10 mg/ml), the inhibition at 10000 µg/mL is 100%. Further, the “Relative Toxicity, Mustard Beetles” value in [3] was found to be 2200.
Consider `CC1(C)[C@H](C=C(F)F)[C@H]1C(=O)OCN1C(=O)C2=C(CCCC2)C1=O` [DP 870], for which the LD50 in [8] is listed as 0.09 μg/female. In addition, the “LD50, plus piperonyl-butoxide” value in [8] (plus piperonyl butoxide (1:5 w/w)) is listed as 0.04 μg/female.
Take `CC1(C)C(C=C(Br)Br)C1C(=O)OC(C#N)c1cccc(Oc2ccccc2)c1` [P29B (crystalline isomer), (αS)-cyano-3-phenoxybenzyl(1R)cis-2,2-dimethyl-3-(2,2-dibromovinyl)cyclopropane carboxylate]: the “Selectivity (ratio of toxicity to Ephestia compared to Venturia)” value in [9] came out at 3.6. Moreover, the “Relative Toxicity, Houseflies” value in [1] was 23000. Also, in series [2], the “LD50 Active compound (flies pretreated with synergist)” value was found to be 0.00023 µg, the Approx. synergist factor is around 7 and the “LD 50 active compound only” value came to 0.0016 µg. In series [3], the “Relative Toxicity, Mustard Beetles” value came to 14000.
